One assay concerns lipogénèse sébacée. Briefly: Activity on sebaceous lipogenesis in vitro (incorporation of 14C-glucose into lipids of rat ear skin slices). The class given is cell-based, rats mâles Sprague Dawley. Conditions: 4 h, pure products, read-out: Synthèse des lipides à partir de glucose (U-1^14C)Δ % témoin; for inhibition at 0.01 %: concentration 0,01 %; for inhibition at 0.001 %: concentration 0,001 %; for inhibition at 0.0025 %: concentration 0,0025 %; for inhibition at 0.005 %: concentration 0,005 %; for inhibition at 0.0005 %: concentration 0,0005 %. The text has this:
Après sacrifice au chloroforme de rats mâles Sprague Dawley, d'un poids moyen de 210 g, les oreilles sont découpées aux ciseaux suivant des repères anatomiques fixes, puis leur côté ventral est soigneusement rasé. Après fixation à l'aide de rubans adhésifs sur une plaque de verre, le côté ventral de l'oreille est prélivé à l'aide d'un kératotome de Castroviejo dont l'épaisseur de coupe est réglée sur 3 mm. Ce prélèvement est ensuite coupé en petits carrés de 1 mm^2 avec une lame de rasoir et pesé avant introduction dans le tube servant à l'incubation.
L'incubation se fait dans 1,5 ml de Krebs-Ringer tamponné à pH 7,4 (tampon phosphate Sôrensen 1/15 M) et contenant 100 U/ml de pénicilline, 1 mg/ml de Streptomycine et 2 mmol de glucose non radioactif. Le produit, à la concentration à étudier, est préalablement dissous dans du propylèneglycol (concentration finale égale à 0,5%), puis introduit dans le milieu d'incubation. Les tubes servant à l'incubation sont maintenus dans un bain de glace, jusqu'à ce que tous les prélèvements soient effectués, puis 7,4kBq de glucose U_^14C (74-148 MBq/mmol) sont ajoutés dans chaque tube.
Pour chaque rat utilisé, une des oreilles sert à tester le produit antiséborrhéique potentiel, alors que l'autre sert de témoin.
Après 4 heures d'incubation à 37°C, le milieu d'incubation est éliminé, puis l'incubat subit 4 lavages de 3 mins avec agitation à l'aide de glucose non radioactif (2 g/I). Une fois la dernière eau de lavage éliminée, 3 ml de potasse alcoolique N sont rajoutés dans chaque tube contenant les glandes sébacées de la peau d'oreille. Les tubes sont bouchés et portés à 70°C pendant une nuit.
Après ce temps, les tubes sont refroidis et 3 ml d'acide chlorhydrique 2N sont introduits dans chaque tube. Les lipides présents correspondant aux glandes sébacées de chaque oreille sont alors extraits par 2 fois 4 ml d'hexane après agitation de 5 min. Après séparation des phases aqueuse et hexanique, 3,25 ml d'hexane à la première extraction et 4 ml à la deuxième sont prélevés et réunis dans une fiole de comptage contenant 10 ml de liquide de mélange scintillant.
Les fioles, après bouchage et- agitation, sont introduites dans un compteur à scintillation liquide préréglé sur le canal ^14C. Le temps de comptage de chaque fiole est de 4 min. Pour chaque fiole, le résultat exprimé en coups/minute (cpm) est transformé en fonction du poids de prélèvement en cpm/mg et l'inhibition (ou l'augmentation) de la synthèse des lipides est donnée par la variation % (A%) de l'incorporation en cpm/mg entre l'oreille témoin et l'oreille "traitée".
La moyenne des A% est effectuée et la valeur statistique des résultats est déterminée par le calcul du coefficient "t" de Student.

The next assay deals with organes du flanc. Briefly: Local antiseborrheic activity (testosterone propionate-stimulated hamster flank organ, lipogenesis from 14C-glucose). The assay is classed as in vivo, hamsters femelles Syrien doré. Conditions: topical, dose de 2000 µg par jour. How it is done: Des hamsters femelles Syrien doré, d'un poids moyen de 110 g, sont tondus et rasés au niveau des organes du flanc qui se présentent sous l'aspect d'une tache sombre de 2 mm de diamètre environ, de part et d'autre de la colonne vertébrale. Sur un des organes, 1,25 µg de testostérone propionate est appliqué journellement sous un volume de 10 µl d'acétone, l'autre organe recevent la même quantité de testostérone associée au produit à étudier. Le traitement s'effectue 5 jours/7 jours pendant 21 jours.
A la fin de cette période, les animaux sont sacrifiés au chloroforme et les diamètres des taches pigmentées sont measurés à l'aide d'une régie graduée. La peau est prélevée, fixée côte épiderme vers le bas, sur une planche en bois. Le muscle peaucier et le tissu adipeux sont alors éliminés par rabotage au Kératotome de Castroviejo (épaisseur de coupe réglée à 3 mm), puis une biopsie de 10 mm de diamètre au niveau de chaque organe est réalisée à l'aide d'un trépan. Cette biopsie est débitée en carrés de 1 mm^2, puis pesée (±0,1 mg).
Le reste de manipulation: incubation, saponification, extraction, est identique à celui effectué dans le test de lipogénèse in vitro ci-dessus.

Take `CCCCCCCCCc1ccc(OCCOCCOCCOCCOCCOCCO)cc1` [40 124, nonyl-4 phénoxy-17 pentaoxa-3,6,9,12,15 heptadécanol-1]: in the assay on lipogénèse sébacée, the inhibition at 0.01 % came to 55%, the inhibition at 0.001 % was 6%, the inhibition at 0.0025 % was 31% and the inhibition at 0.005 % stood at 42%.

On to `CC(C)(C)CC(C)(C)c1ccc(OCCOCCOCCOCCOCCOCCO)cc1` [40 181], for which, in the assay with lipogénèse sébacée, the inhibition at 0.01 % turned out to be 67%, the inhibition at 0.001 % was 4%, the inhibition at 0.0025 % came to 5% and the inhibition at 0.005 % turned out to be 42%.

With `CC(C)(C)CC(C)(C)c1ccc(OCCOCCOCCOCCOCCOCCOCCOCCOCCOCCOCCOCCO)cc1` [40 182], in the assay on lipogénèse sébacée, the inhibition at 0.0005 % is 19%, the inhibition at 0.001 % is 41%, the inhibition at 0.0025 % was 69% and the inhibition at 0.005 % was found to be 89%.

In the case of `CCCCCCCCCc1ccc(OCCOCCOCCOCCOCCOCCOCCOCCOCCOCCOCCOCCO)cc1` [compound 7886], the inhibition at 0.00025 % in the assay with lipogénèse sébacée (concentration 0,00025 %) is 6%. Moreover, in the assay with lipogénèse sébacée, the inhibition at 0.0005 % came to 33%, the inhibition at 0.001 % is 51% and the inhibition at 0.005 % turned out to be 84%. The inhibition at 0.025 % with lipogénèse sébacée (concentration 0,025 %) amounted to 71%. Further, the “inhibition de la lipogenèse sébacée par rapport au témoin” value in the assay with organes du flanc was 100%.

Consider `CCCCCCCCCc1ccc(OCCOCCOCCOCCOCCOCCOCCOCCOCCO)cc1` [compound 7948], for which, in the assay with lipogénèse sébacée, the inhibition at 0.01 % is 81%, the inhibition at 0.001 % is 10%, the inhibition at 0.0025 % was determined as 31% and the inhibition at 0.005 % worked out at 61%.

Source of the values: patent publication EP0097567B1, “Use of polyethoxylated alkyl phenols as antiseborrheic agents” (SANOFI S.A., priority 1982, dated 1984).
